Here are results for six molecules from paper PMC11359197 (Viruses, 2024).

The assay concerns the target released M^pro-GST (Severe acute respiratory syndrome coronavirus 2, UniProt P0DTD1, Q3569E). Type of assay: cell-based, SARS-CoV-2.
Regarding `CC(C)C[C@H](NC(=O)[C@H]1O[C@@H]1C(=O)O)C(=O)NCCCCN=C(N)N` [E-64], the “GFP signal (GFP degradation by the released M^pro-GST)” value is on record as “background levels”. Regarding `CC(C)[C@H](O)C(=O)N[C@@H](C)C(=O)N[C@@H]1C(=O)N(C)CCc2ccccc21` [LY450139], the “GFP signal versus DMSO controls, pilot screen” value (“GFP signal versus DMSO controls” for short) was “higher GFP signals”. In the case of `CC(NC(=O)[C@H](Cc1ccccc1)NC(=O)OCc1ccccc1)C(=O)CF` (some centres unmarked) [Z-FA-FMK], the “GFP signal (GFP degradation by the released M^pro-GST)” value is given as “consistently suppressed the GFP degradation” and the “GFP signal versus DMSO controls” value is “higher GFP signals”.

Regarding `COC(=O)N[C@H](C(=O)N[C@@H](Cc1ccccc1)[C@@H](O)CN(Cc1ccc(-c2ccccn2)cc1)NC(=O)[C@@H](NC(=O)OC)C(C)(C)C)C(C)(C)C` [atazanavir], the “GFP signal (GFP degradation by the released M^pro-GST)” value was “background levels”. Take `CC(C)(C)NC(=O)N[C@H](C(=O)N1C[C@H]2[C@@H]([C@H]1C(=O)NC(CC1CCC1)C(=O)C(N)=O)C2(C)C)C(C)(C)C` (some centres unmarked) [boceprevir, Boceprevir]: the “GFP signal (GFP degradation by the released M^pro-GST)” value is listed as “consistently suppressed the GFP degradation” and the “GFP signal versus DMSO controls” value is recorded as “higher GFP signals”.

As to `Cc1cccc(C)c1OCC(=O)N[C@@H](Cc1ccccc1)[C@@H](O)C[C@H](Cc1ccccc1)NC(=O)[C@H](C(C)C)N1CCCNC1=O` [lopinavir], the “GFP signal (GFP degradation by the released M^pro-GST)” value is “background levels”.
